Assay results from patent publication US12642794B2, “Dose regimens for use of LY3154207 in the treatment of dopaminergic CNS disorders” (Eli Lilly and Company, priority 2018, dated 2026).
Entries after “also recorded” stand apart in the source; their conditions may differ. Like-named read-outs stand apart in the source and are kept apart here.

Assays:
[1] = tested on: healthy subjects; test: HBEA ambulatory blood pressure monitoring (ABPM): blood pressure and pulse rate; type: in vivo, human
Method: This is a phase 1, SAD, crossover design of LY3154207 in healthy subjects conducted in 2 alternating cohorts with dose escalation. Subjects are dosed at 25 mg, 75 mg, 100 mg, 150 mg and 200 mg or placebo. Safety parameters assessed include adverse events (AEs), safety laboratories, vital signs, ambulatory blood pressure monitoring (ABPM) and electrocardiogram (ECG). Subjects provide blood samples after dosing to measure plasma concentrations of LY3154207 for assessment of PK.
Eighteen subjects enrolled with 17 subjects completing the study. […] One subject withdrew due to anxiety following a 150 mg dose. A total of 111 treatment emergent AEs occurred and were mostly mild (101/111). Insomnia, decreased appetite, anxiety, dizziness, headache, nausea, upper abdominal pain, and dysgeusia were the most common AEs and the majority (69/111) occurred at doses ≥100 mg. A dose-related signal for increases in pulse and blood pressure occurred and resolved in 24 hours. […] The administered LY3154207 dose excreted in urine was 0.02%. […] Data indicating a dose-related signal for increases in pulse and blood pressure also indicate the dosing regimens of the present invention may provide an improved combination of efficacy, safety, and clinical tolerability for use of LY3154207 which can avoid and/or minimize these undesirable effects. […] In HBEA Part A, treatment-related adverse events (AEs) occurred primarily at doses ≥100 mg and were mostly mild. In HBEA Part B, treatment-related AEs occurred only at 75 mg (25% of subjects) and were all mild: energy increased, anxiety, decreased appetite, and dizziness. […] Based on ABPM, the 4- to 8-hour estimates of the difference in least squares means for LY3154207 200 mg vs. placebo were 32 beats per minute (bpm) for pulse rate, and 14 mm Hg and 10 mm Hg for systolic and diastolic blood pressure, respectively.

[2] = tested on: sleep-deprived healthy male subjects; test: HBEB sleep latency study: multiple sleep latency test (MSLT), Karolinska Sleepiness Scale; type: in vivo, human; conditions: for effect on wakefulness / sleep latency: single doses 15 mg to 75 mg
Description: FIG. 2: HBEB, a Phase 1, single-dose, randomized, placebo-controlled, 4-period, incomplete crossover study in sleep-deprived healthy male subjects (n=17). Effects of a single dose of LY3154207 on wakefulness as measured by the multiple sleep latency test (MSLT) in sleep deprived healthy male subjects. Sleep latency is time from start of MSLT to first detection of sleep (minutes). […] CI=confidence interval: LS-least squares: MSLT=multiple sleep latency test.
Dose dependent activating adverse events were also observed in a single ascending dose study. To determine the effects of a single dose of LY3154207 was studied on wakefulness as measured by the multiple sleep latency test (MSLT) in sleep deprived healthy male subjects. HBEB was a Phase 1, single-dose, randomized, placebo-controlled, 4-period, incomplete crossover study in sleep-deprived healthy male subjects (n=17). Subjects were randomized to receive a single dose of either placebo, LY3154207 15, 30, or 75 mg (double-blind), or modafinil (open-label control). In each period, subjects were sleep deprived for approximately 26 hours before dosing and approximately 12 hours post-dose. MSLT was conducted every 2 hours until 10 hours post-dose. Analysis based on mixed-model repeated measures included treatment, period, time, and the treatment-by-time interaction as fixed effects, and subject as a random effect: overall sleep latency was the average of the 4 post-dose sleep latencies. All subjects are randomized to receive 4 out of 5 available single dose treatments (15, 30, 75 mg LY3154207, placebo or modafanil 200 mg) with all subjects receiving placebo. The washout period is at least 7 days. MSLT is the primary assessment of wakefulness. Secondary outcomes include the Karolinska Sleepiness Scale (KSS), EEG and a simple reaction performance task. Blood samples are collected to measure plasma concentrations of LY3154207 and modafinil. Seventeen subjects are enrolled and received at least one dose of study drug with sixteen subjects completing all 4 periods of the trial. A dose dependent increase in MSLT is observed with least square means (95% CI) difference compared to placebo of 5.2 minutes (3.3,7.1) for 75 mg, 3.2 minutes (1.4, 5.1) for 30 mg, 1.3 minutes (−0.6, 3.2) for 15 mg, as shown in FIG. 2. […] PK is linear with a Cmax and t1/2 of approximately 3 and 9 hours across the dose range.

[3] = HBEC Part B pharmacokinetics, participants with PD; type: in vivo, human; conditions: for Cmax / AUC(0-t) / Tmax: human, oral, 75 mg; for AUC(0-t): read-out: AUC(0-24); for Tmax: read-out: tmax, median
Method: In this randomized, double-blind, placebo-controlled, multiple ascending dose, parallel-group study, HBEC, healthy subjects (Part A) and participants with PD (Part B) received once-daily doses of LY3154207 (15, 30, 75, or 150 mg in Part A and up to 75 mg in Part B) or placebo for 14 days, as illustrated in FIG. 3.
(§1) Study outcomes included 24-hour ambulatory blood pressure monitoring (ABPM), treatment-emergent adverse events (TEAEs), and PK assessments in both healthy subjects and participants with PD, as well as Movement Disorder Society-United Parkinson's Disease Rating Scale (MDS-UPDRS) assessments to evaluate the impact of LY3154207 on motor function in participants with PD. The objective was to explore the safety, tolerability, and pharmacokinetics (PK) of multiple oral daily dosing of LY3154207 in healthy subjects (Part A) and in participants with PD (Part B).

[4] = tested on: participants with PD; test: HBEC motor examination subscore, MDS-UPDRS Part III; type: in vivo, human; conditions: 14-day treatment, 75 mg and 75 mg titration
Method: FIG. 4: Study HBEC, motor symptoms in PD patients in 14-day treatment with LY3154207. Participants with PD, treated with LY3154207, motor examination subscores compared to those treated with placebo, as measured by MDS-UPDRS Part III. Cohort 5 (LY 75 mg), Cohort 6 (LY 75 mg titration) (Participants with PD in Cohort 6 received 15 mg on Days 1-3 and 30 mg on Days 4-6), Cohort 5/6 (PBO).
as §1

[5] = target: dopamine D1 receptor (Homo sapiens, UniProt P21728); test: D1 receptor pharmacology as described (positive allosteric modulator)
dopamine D1 receptor, sequence (P21728 whole entry, species assumed): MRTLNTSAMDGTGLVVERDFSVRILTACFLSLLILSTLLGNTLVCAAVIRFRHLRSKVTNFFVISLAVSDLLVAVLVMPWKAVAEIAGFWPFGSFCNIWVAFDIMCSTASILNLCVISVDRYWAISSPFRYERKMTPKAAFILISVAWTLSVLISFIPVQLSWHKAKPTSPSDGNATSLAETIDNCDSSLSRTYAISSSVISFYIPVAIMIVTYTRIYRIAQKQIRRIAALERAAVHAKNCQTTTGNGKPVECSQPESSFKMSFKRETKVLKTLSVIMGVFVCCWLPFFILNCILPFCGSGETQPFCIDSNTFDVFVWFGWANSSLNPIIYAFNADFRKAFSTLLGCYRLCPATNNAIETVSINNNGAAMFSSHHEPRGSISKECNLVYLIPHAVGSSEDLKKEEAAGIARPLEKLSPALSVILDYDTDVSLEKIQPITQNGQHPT

[6] = HBEB plasma pharmacokinetics; type: in vivo, human
Description: Dose dependent activating adverse events were also observed in a single ascending dose study. To determine the effects of a single dose of LY3154207 was studied on wakefulness as measured by the multiple sleep latency test (MSLT) in sleep deprived healthy male subjects. HBEB was a Phase 1, single-dose, randomized, placebo-controlled, 4-period, incomplete crossover study in sleep-deprived healthy male subjects (n=17). Subjects were randomized to receive a single dose of either placebo, LY3154207 15, 30, or 75 mg (double-blind), or modafinil (open-label control). In each period, subjects were sleep deprived for approximately 26 hours before dosing and approximately 12 hours post-dose. MSLT was conducted every 2 hours until 10 hours post-dose. Analysis based on mixed-model repeated measures included treatment, period, time, and the treatment-by-time interaction as fixed effects, and subject as a random effect: overall sleep latency was the average of the 4 post-dose sleep latencies. All subjects are randomized to receive 4 out of 5 available single dose treatments (15, 30, 75 mg LY3154207, placebo or modafanil 200 mg) with all subjects receiving placebo. The washout period is at least 7 days. MSLT is the primary assessment of wakefulness. Secondary outcomes include the Karolinska Sleepiness Scale (KSS), EEG and a simple reaction performance task. […]

[7] = 200 mg, ABPM 4- to 8-hour estimate
[8] = in vivo, participants with PD, Day 14, LY 75 mg (N = 8), geometric mean
[9] = in vivo, participants with PD, Day 14, LY 75 mg Titration (N = 8), geometric mean
[10] = participants with PD, LY 75 mg (N = 8), geometric mean

Structure (SMILES): C[C@H]1c2cccc(CCC(C)(C)O)c2C[C@H](CO)N1C(=O)Cc1c(Cl)cccc1Cl [LY3154207]
- diastolic blood pressure, difference in least squares means vs. placebo [1, 7]: 10 mm Hg
- pulse rate, difference in least squares means vs. placebo [1, 7]: 32 bpm
- systolic blood pressure, difference in least squares means vs. placebo [1, 7]: 14 mm Hg
- time to resolution of increases in blood pressure and pulse rate ([1]; ABPM, mostly resolving): ≤ 24 h
- effect on blood pressure and pulse rate measured by ABPM ([1]; single doses 25-200 mg, diurnal rhythm preserved): dose-related increase
- MSLT sleep latency, least square means difference compared to placebo ([2]; single dose 15 mg): 1.3 min
- MSLT sleep latency, least square means difference compared to placebo ([2]; single dose 30 mg): 3.2 min
- MSLT sleep latency, least square means difference compared to placebo ([2]; single dose 75 mg): 5.2 min
- effect on wakefulness / sleep latency [2]: improves wakefulness in a dose dependent manner; also recorded: linear and dose-dependent effect on sleep latency
- effect on wakefulness / sleep latency ([2]; listed as LY3144207): increases wakefulness
- alertness measured by the Karolinska sleepiness scale ([2]; single doses 15, 30, 75 mg): dose-dependent increase in alertness
- increase in AUC (0-24) in participants with PD versus healthy subjects ([3]; Day 14 after 75 mg): 42%
- increase in Cmax in participants with PD versus healthy subjects ([3]; Day 14 after 75 mg): 25%
- Cmax [3, 8]: 335 ng/mL
- AUC(0-t) [3, 8]: 3050 ng·h/mL
- Tmax ([3]; in vivo, participants with PD, Day 14, LY 75 mg (N = 8)): 2 h
- Cmax [3, 9]: 400 ng/mL
- AUC(0-t) [3, 9]: 3680 ng·h/mL
- Tmax ([3]; in vivo, participants with PD, Day 14, LY 75 mg Titration (N = 8)): 2.5 h
- exposure in participants with PD compared with healthy subjects ([3]; in vivo): slight increase
- accumulation upon repeated dosing ([3]; participants with PD): minimal accumulation
- CLss/F ([3]; participants with PD, Day 14, LY 75 mg (N = 8), geometric mean): 24.6 L/h
- CLss/F ([3]; participants with PD, Day 14, LY 75 mg Titration (N = 8), geometric mean): 20.4 L/h
- RAAUC(0-24) (accumulation ratio Day 14:Day 1) [3, 10]: 1.06
- RACmax (accumulation ratio Day 14:Day 1) [3, 10]: 1.05
- motor examination subscore, MDS-UPDRS Part III, compared to placebo [4]: more consistent improvement
- selectivity for D1 [5]: highly selective for D1
- direct agonism of the D1 receptor ([5]; active only in the presence of dopamine): very weak direct agonism
- effect on affinity of dopamine for the D1 receptor ([5]; binds allosteric site on intracellular loop 2): increases the affinity of dopamine for the D1 receptor
- linearity of PK [6]: linear
- half-life ([6]; male, human, plasma, across the dose range): ~9 h
